Here are results for two molecules from patent US20050158320A1, “Combinations for the treatment of proliferative diseases” (priority 2003, published 2005).

Read-outs that look alike come from different tables or passages of the source.

Test [1] deals with T1, Recombinant HsEg5/KSP kinesin motor protein (Homo sapiens, UniProt P52732).
T1 sequence (P52732 1-1056): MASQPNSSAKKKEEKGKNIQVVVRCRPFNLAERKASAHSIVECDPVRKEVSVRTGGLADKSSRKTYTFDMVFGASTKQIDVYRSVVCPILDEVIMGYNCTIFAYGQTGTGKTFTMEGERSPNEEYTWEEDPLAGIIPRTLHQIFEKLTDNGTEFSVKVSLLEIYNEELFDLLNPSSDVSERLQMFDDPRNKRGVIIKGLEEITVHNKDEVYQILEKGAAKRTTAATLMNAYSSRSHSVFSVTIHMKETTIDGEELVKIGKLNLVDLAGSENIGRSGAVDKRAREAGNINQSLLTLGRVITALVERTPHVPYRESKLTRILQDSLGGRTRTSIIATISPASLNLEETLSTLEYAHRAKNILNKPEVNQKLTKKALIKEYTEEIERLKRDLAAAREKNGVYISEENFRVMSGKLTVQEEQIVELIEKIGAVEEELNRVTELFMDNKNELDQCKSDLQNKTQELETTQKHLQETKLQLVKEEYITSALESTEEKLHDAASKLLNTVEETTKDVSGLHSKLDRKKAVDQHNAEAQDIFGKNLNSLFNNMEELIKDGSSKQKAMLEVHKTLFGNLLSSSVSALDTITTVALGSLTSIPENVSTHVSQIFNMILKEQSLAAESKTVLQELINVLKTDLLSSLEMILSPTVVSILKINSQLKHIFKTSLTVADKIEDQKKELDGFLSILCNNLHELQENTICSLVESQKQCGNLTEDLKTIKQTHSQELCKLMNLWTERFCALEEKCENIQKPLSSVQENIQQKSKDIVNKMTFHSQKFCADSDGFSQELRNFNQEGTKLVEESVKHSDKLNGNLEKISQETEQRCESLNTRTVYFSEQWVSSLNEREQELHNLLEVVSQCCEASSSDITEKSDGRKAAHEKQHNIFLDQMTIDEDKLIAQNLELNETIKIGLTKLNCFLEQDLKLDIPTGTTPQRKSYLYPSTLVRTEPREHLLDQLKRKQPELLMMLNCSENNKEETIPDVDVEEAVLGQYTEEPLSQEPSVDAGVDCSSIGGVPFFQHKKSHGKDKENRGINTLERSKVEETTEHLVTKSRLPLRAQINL
Briefly: cell free motor assay (Kinesin ATPase End Point Biochem Kit, microtubule activated ATPase activity). Type of test: biochemical. How it is done: This assay measures organic phosphate (Pi) generated during microtubule activated ATPase activity of kinesin motor proteins. Recombinant HsEg5/KSP kinesin motor protein activity was assayed using the Kinesin ATPase End Point Biochem Kit (Cytoskeleton, catalog # BK053) following the manufacturer's instructions for amounts of reaction buffer, ATP and microtubules. The amount of HsEg5/KSP kinesin protein was optimized to 0.8 μg per reaction and included where indicated. Each assay was performed in a total reaction volume of 30 μL in a clear 96 well ½ area plate (Coming Inc., Costar and cat # 3697) and included the following conditions: • 1. a reaction blank consisting of reaction buffer and ATP only; • 2. negative control reactions containing: • a. microtubules and ATP without kinesin protein or • b. kinesin HsEg5/KSP and ATP without microtubules; and • 3. experimental reactions containing ATP, kinesin, and microtubules with or without compound at the indicated final concentrations.
Reactions were pre-incubated for 15 minutes at room temperature prior to the addition of ATP. After ATP addition, reactions were allowed to proceed for 10 minutes at room temperature prior to termination by the addition of 70 μL of CytoPhos Reagent. Following a last 10-minute incubation at room temperature, reactions were quantitated by reading the absorbance at 650 nm on a spectrophotometer (Beckman Instruments, Inc., Model DU 530). Raw absorbance values were corrected by subtracting the absorbance of the blank. Absorbance was converted into Pi concentration by comparison with a standard Pi curve. Percent inhibition was calculated from Pi concentration according to the following formula: % Inhibition=(untreated-treated)/untreated×100. The arithmetic mean was generated from percent inhibition of experimental replicates.

Test [2] deals with Human colon adenocarcinoma cell line HCT116. Briefly: anti-proliferation assay (Alamar Blue). In kind it is cell-based. The settings on record: read-out: percent inhibition (% I) of cell proliferation. How it is done: Cells were diluted in culture media such that 3000 cells were delivered in 20 μL of media into each assay well. […] Quantification, using an LJL Analyst AD reader (LJL Biosystems), was taken in the middle of the well with high attenuation, a 100 msec read time, an excitation filter at 530 nm, and an emission filter at 575 nm. For some experiments, quantification was performed using a Wallac Victor2 reader. Measurements were taken at the top of the well with stabilized energy lamp control; a 100 msec read time, an excitation filter at […], and an emission filter at 590 nm. No significant differences between plate readers were measured. The percent inhibition (% I) for each well was calculated using the following formula: % I=[(avg. untreated wells−treated well)/(avg. untreated wells)]×100 […] Negative inhibition values result from local variations in treated wells as compared to untreated wells.

In test [3] the test system is PRL phosphatases. Particulars: Pathak et al., Mol. Cancer Ther. 2002; cited from earlier work.

For the molecule `CN(C)CCCN1c2ccccc2Sc2ccc(Cl)cc21` [Chlorpromazine, chlorpromazine], the “mitotic kinesin inhibition (in words)” value in test [1] (cell free motor assay) is recorded as “mitotic kinesin inhibitor”. Besides, in test [1] (chlorpromazine 1 μM, mean, n = 4, read-out: Percent inhibition of kinesin motor activity), the inhibition at 1 µM was -5.51%. Also, in test [1] (chlorpromazine 2 μM, mean, n = 4, read-out: Percent inhibition of kinesin motor activity), the inhibition at 2 µM is -11.2%. Besides, the inhibition at 4 µM in test [1] (chlorpromazine 4 μM, mean, n = 4, read-out: Percent inhibition of kinesin motor activity) was 17.4%; in test [2] (HCT-116, chlorpromazine 4 μM, pentamidine 0 μM), 2.9%. Moreover, in test [1] (chlorpromazine 8 μM, mean, n = 4, read-out: Percent inhibition of kinesin motor activity), the inhibition at 8 µM came out at 52.9%. The inhibition at 16 µM in test [1] (chlorpromazine 16 μM, mean, n = 4, read-out: Percent inhibition of kinesin motor activity) stood at 85.8%; in test [2] (HCT-116, chlorpromazine 16 μM, pentamidine 0 μM) it was 39%. Further, the inhibition at 32 µM in test [1] (chlorpromazine 32 μM, mean, n = 4, read-out: Percent inhibition of kinesin motor activity) was 97.8%. The inhibition at 64 µM in test [1] (chlorpromazine 64 μM, mean, n = 4, read-out: Percent inhibition of kinesin motor activity) came out at 105%. In addition, the inhibition at 6 µM in test [2] (HCT-116, chlorpromazine 6 μM, pentamidine 0 μM) was 0.11%. In addition, the inhibition at 7.5 µM in test [2] (HCT-116, chlorpromazine 7.5 μM, pentamidine 0 μM) came to 5.4%. In addition, the inhibition at 9 µM in test [2] (HCT-116, chlorpromazine 9 μM, pentamidine 0 μM) was found to be 4.1%. Besides, the inhibition at 10 µM in test [2] (HCT-116, chlorpromazine 10 μM, pentamidine 0 μM) worked out at 16%. The inhibition at 12 µM in test [2] (HCT-116, chlorpromazine 12 μM, pentamidine 0 μM) is 22%. The inhibition at 20 µM in test [2] (HCT-116, chlorpromazine 20 μM, pentamidine 0 μM) worked out at 56%. For the same molecule, the inhibition at 22 µM in test [2] (HCT-116, chlorpromazine 22 μM, pentamidine 0 μM) was found to be 59%.
Consider `N=C(N)c1ccc(OCCCCCOc2ccc(C(=N)N)cc2)cc1` [Pentamidine, pentamidine], for which, in test [3], the “PRL phosphatase inhibition (in words)” value was “inhibitor of the PRL phosphatases”. Also, the inhibition at 0.5 µM in test [2] (HCT-116, chlorpromazine 0 μM, pentamidine 0.5 μM) stood at 1.2%. Moreover, the inhibition at 1 µM in test [2] (HCT-116, chlorpromazine 0 μM, pentamidine 1 μM) amounted to 1.9%. Besides, in test [2] (HCT-116, chlorpromazine 0 μM, pentamidine 2 μM), the inhibition at 2 µM came to 3.1%. In test [2] (HCT-116, chlorpromazine 0 μM, pentamidine 4 μM), the inhibition at 4 µM is -0.77%. For the same molecule, the inhibition at 6 µM in test [2] (HCT-116, chlorpromazine 0 μM, pentamidine 6 μM) amounted to 5%. In addition, in test [2] (HCT-116, chlorpromazine 0 μM, pentamidine 9 μM), the inhibition at 9 µM came to 9%. In test [2] (HCT-116, chlorpromazine 0 μM, pentamidine 12 μM), the inhibition at 12 µM was determined as 9.9%. In test [2] (HCT-116, chlorpromazine 0 μM, pentamidine 15 μM), the inhibition at 15 µM was 16%. In addition, the inhibition at 20 µM in test [2] (HCT-116, chlorpromazine 0 μM, pentamidine 20 μM) was 19%.
